{"source": "patent US7018642B2", "about": "(The Procter & Gamble Company, priority 2001, dated 2006)", "test_in_all_cases": "Biofilm prevention screen (96-well microplate, crystal violet)", "format_in_all_cases": "cell-based", "key": {"[1]": {"test_system": "P. aeruginosa strain PAO1", "details": "Pseudomonas aeruginosa, positive = prevention, negative = enhancement of biofilm formation, quadruplicate, read-out: average percentage reduction of biofilm formed relative to DMSO controls", "procedure,_shortened": "(§1)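 Three strains in 96-well round-bottom plates, compound at 250–500 μM, 160 μM or 32 μM, 16–26 h at 200 rpm (30° C Pseudomonas, 37° C staphylococcus). Staining: CV 45 min at room temperature, ethanol extraction, A586. Reported as % biofilm reduction vs DMSO, n = 4.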"}, "[2]": {"test_system": "P. fluorescens strain ATCC 13525", "details": "Pseudomonas fluorescens, positive = prevention, negative = enhancement of biofilm formation, quadruplicate, read-out: average percentage reduction of biofilm formed relative to DMSO controls; for inhibition at 32 µM: ATCC13525, 32 μM; for inhibition at 160 µM: ATCC13525, 160 μM; for inhibition at 390 µM: ATCC13525, 390 μM", "procedure,_shortened": "as §1"}, "[3]": {"test_system": "S. epidermidis strain ATCC 35984", "details": "Staphylococcus epidermidis, positive = prevention, negative = enhancement of biofilm formation, quadruplicate, read-out: average percentage reduction of biofilm formed relative to DMSO controls; for inhibition at 32 µM: ATCC35984, 32 μM; for inhibition at 160 µM: ATCC35984, 160 μM; for inhibition at 390 µM: ATCC35984, 390 μM", "procedure,_shortened": "as §1"}}}
{"molecule": "CCCCCCCCCCNC(=O)[C@@H]1CCCN1", "note": "[Compound 32, L-proline n-decyl amide]", "values": [{"measurement": "inhibition at 32 µM", "setting": "[1]", "result": -15, "unit": "%"}, {"measurement": "inhibition at 160 µM", "setting": "[1]", "result": -43, "unit": "%"}, {"measurement": "inhibition at 390 µM", "setting": "[1]", "result": 22, "unit": "%"}, {"measurement": "inhibition at 32 µM", "setting": "[2]", "result": 9, "unit": "%"}, {"measurement": "inhibition at 160 µM", "setting": "[2]", "result": 55, "unit": "%"}, {"measurement": "inhibition at 390 µM", "setting": "[2]", "result": 95, "unit": "%"}, {"measurement": "inhibition at 32 µM", "setting": "[3]", "result": -3, "unit": "%"}, {"measurement": "inhibition at 160 µM", "setting": "[3]", "result": 100, "unit": "%"}, {"measurement": "inhibition at 390 µM", "setting": "[3]", "result": 97, "unit": "%"}]}
{"molecule": "CCCCCCCCCCCCNC(=O)[C@@H]1CCCN1", "note": "[Compound 168]", "values": [{"measurement": "inhibition at 32 µM", "setting": "[1]", "result": 3, "unit": "%"}, {"measurement": "inhibition at 160 µM", "setting": "[1]", "result": 53, "unit": "%"}, {"measurement": "inhibition at 390 µM", "setting": "[1]", "result": 91, "unit": "%"}, {"measurement": "inhibition at 32 µM", "setting": "[2]", "result": 26, "unit": "%"}, {"measurement": "inhibition at 160 µM", "setting": "[2]", "result": 97, "unit": "%"}, {"measurement": "inhibition at 390 µM", "setting": "[2]", "result": 93, "unit": "%"}, {"measurement": "inhibition at 32 µM", "setting": "[3]", "result": 101, "unit": "%"}, {"measurement": "inhibition at 160 µM", "setting": "[3]", "result": 100, "unit": "%"}, {"measurement": "inhibition at 390 µM", "setting": "[3]", "result": 98, "unit": "%"}]}
{"molecule": "O=C(NCCCCCCCCCCCCNC(=O)[C@H]1CCCN1)[C@H]1CCCN1", "note": "[Compound 226, D-proline 1,12-diaminododecane bisamide]", "values": [{"measurement": "inhibition at 32 µM", "setting": "[1]", "result": -23, "unit": "%"}, {"measurement": "inhibition at 160 µM", "setting": "[1]", "result": 96, "unit": "%"}, {"measurement": "inhibition at 390 µM", "setting": "[1]", "result": 95, "unit": "%"}, {"measurement": "inhibition at 32 µM", "setting": "[2]", "result": -19, "unit": "%"}, {"measurement": "inhibition at 160 µM", "setting": "[2]", "result": 10, "unit": "%"}, {"measurement": "inhibition at 390 µM", "setting": "[2]", "result": 69, "unit": "%"}, {"measurement": "inhibition at 32 µM", "setting": "[3]", "result": 24, "unit": "%"}, {"measurement": "inhibition at 160 µM", "setting": "[3]", "result": 101, "unit": "%"}, {"measurement": "inhibition at 390 µM", "setting": "[3]", "result": 100, "unit": "%"}]}
